Molecular target: Acetylcholinesterase (Homo sapiens) (UniProt P22303)
Experiment: Inhibition of acetylcholinesterase at 100 uM by chemiluminescence method

Sequence of Acetylcholinesterase (Homo sapiens) (P22303 whole entry): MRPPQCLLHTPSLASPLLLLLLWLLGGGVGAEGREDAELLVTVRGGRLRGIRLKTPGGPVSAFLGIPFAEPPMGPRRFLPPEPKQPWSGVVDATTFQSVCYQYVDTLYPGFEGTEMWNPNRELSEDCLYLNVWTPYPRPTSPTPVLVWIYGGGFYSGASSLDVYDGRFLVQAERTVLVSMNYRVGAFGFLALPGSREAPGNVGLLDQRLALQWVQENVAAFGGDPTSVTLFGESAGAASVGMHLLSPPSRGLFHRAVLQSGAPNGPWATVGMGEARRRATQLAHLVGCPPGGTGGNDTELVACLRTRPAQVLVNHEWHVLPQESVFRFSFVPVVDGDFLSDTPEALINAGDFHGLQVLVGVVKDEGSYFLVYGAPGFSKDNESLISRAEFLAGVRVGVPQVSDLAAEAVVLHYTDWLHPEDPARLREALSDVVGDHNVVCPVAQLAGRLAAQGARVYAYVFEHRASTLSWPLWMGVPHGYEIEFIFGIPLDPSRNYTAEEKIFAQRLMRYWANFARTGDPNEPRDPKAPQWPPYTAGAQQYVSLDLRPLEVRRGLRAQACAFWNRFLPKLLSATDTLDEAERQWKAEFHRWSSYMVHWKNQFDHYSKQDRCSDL

| SMILES | inhibition |
| --- | --- |
| CO[C@@H]1CC[C@](C)(O)C(C(=O)C2(C)NC(=O)CC[C@H](N)C(=O)O2)=C1O (some centres not stated) | 20% |
| C=C1CC[C@@H](OC)C(O)=C1C(=O)C1(C)NC(=O)CC[C@H](N)C(=O)O1 (some centres not stated) | 7% |

From ChEMBL document CHEMBL1156660, “Alkaloids from the mushroom Pseudobaeospora pyrifera, pyriferines A-C” (J Nat Prod, 2008)
